The values below come from patent US20030229134A1, “Methods for stimulating nervous system regeneration and repair by inhibiting phosphodiesterase type 4” (priority 2000, published 2003).

The subject of data set [1] is cerebellar neurons on MAG-expressing Chinese hamster ovary (CHO) cells. The data set can be described thus: Direct treatment of cerebellar neurons with rolipram; neurite outgrowth on MAG-expressing CHO cells. Type of data set: cell-based, rat. As to the method: Cerebellar neurons from P5 rats were isolated as described previously (Cai et al., 1999) Briefly, cerebellum was treated with 0.025% of trypsin, triturated and incubated for 10 min at 37° C. Trypsinization was stopped by adding an equal amount of DMEM containing 10% fetal calf serum (FCS). Cells were centrifuged at 800 rpm for 5 min. The cells were resuspended to a single-cell suspension in 2 ml of SATO (see Cai et al., 1999, herein incorporated by reference). The concentration of cells were adjusted to 6×10^4 cells/ml. […] Where indicated, dbcAMP (1 mM) or rolipram (0.1 uM, 0.25 uM, 0.5 uM or 1.0 uM) was added to the media. After 18 hours of culture, neurons were fixed and immunostained with a rabbit polyclonal antibody against […] (GAP43) to visualize the neurites. The length of the longest neurite of the first two hundred GAP43-positive neurons was determined using the Simple 32™ software (see Cai et al., 1999). The mean length of a neurite was determined and presented as the average length+/−SEM in micrometers (um). Results are expressed as a percentage of neurite length from neurons grown in the absence of dbcAMP or rolipram.

In data set [2] the test system is cerebellar neurons on MAG-expressing CHO cells. The experiment in a line: Priming of cerebellar neurons with rolipram; neurite outgrowth on MAG-expressing CHO cells. The data set is classed as cell-based, rat. The following applies: BDNF 200 ng/ml. The protocol:
(§1) Isolated cerebellar neurons in SATO media (prepared as in Example 1) were plated onto poly-L-lysine-coated dishes at 1×10^6 cells/dish. Where indicated, either BDNF at a concentration of 200 ng/ml, or rolipram at a concentration 0.1 uM or 0.25 uM (all from Sigma) was added. After culture for 18 hours (termed priming), neurons were removed with 0.1% trypsin. Trypsinization was stopped by adding 5 ml of DMEM containing 10% FCS. The primed neurons were centrifuged at 800 rpm for 6 min and resuspended in SATO media. The concentration of cells were adjusted to 6×10^4 cells/ml. […] Myelin was prepared as described previously (Cai et al., 1999) from rat CNS white matter. Neurons were cultured overnight before being fixed and immunostained for GAP43 to visualize the neurites. The length of the longest neurite per neuron, from 180-200 neurons, was measured. Results are presented as the average length+/−SEM in micrometers (um). (See, e.g., U.S. Pat. Nos. 5,932,542 and 6,203,792).

Data set [3] relates to cerebellar neurons on purified, immobilized myelin. The experiment in a line: Priming of cerebellar neurons with rolipram; neurite outgrowth on purified, immobilized myelin. The data set is classed as cell-based, rat. The following applies: priming with rolipram 0.25 uM, FIG. 2B. As to the method:
as §1

Data set [4] deals with cerebellar neurons and DRG neurons on MAG-expressing CHO cells. The experiment in a line: Subcutaneous rolipram injections into P12 rats; neurite outgrowth of isolated neurons on MAG-expressing CHO cells. The data set is classed as in vivo, rat. The protocol: In order to determine whether a PDE4 specific inhibitor could be used to prime neurons in vivo and prevent inhibition of neurite outgrowth by myelin and MAG, rolipram was injected subcutaneously into P12 and P30 rats every 3 hours for 24 hours. For all experiments, rolipram was dissolved in DMSO and sterile saline was added to adjust the concentrations. The final volume of the rolipram solution was 0.2 ml for each injection. At each time point, a single rolipram injection was given. Rolipram was injected subcutaneously with insulin syringes (Becton Dickinson 1 ccU-100 insulin Syringe) under the skin of the rat's neck (for all experiments) and in various other regions (only for first experiment using P12 rats). Control animals were injected with a 0.2 ml mixture of DMSO and sterile saline without rolipram, following the same schedule.
Rolipram was injected subcutaneously into P12 rats at concentrations of 0, 7.5, 20, 25 or 40 nmol/kg every 3 hours for 24 hours before sacrificing. […] Cerebellar neurons were isolated as described in Example 1. Dorsal root ganglia (DRG) neurons were isolated as described previously (De Bellard et al., 1996). Briefly, ganglia were removed from the animals and incubated in 5 ml of SATO media containing 0.025% of trypsin and 0.15% of collagenase type I (Worthington) for 1 hour at 37° C. The ganglia were triturated and trypsinization was stopped by adding 5 ml of DMEM containing 10% FCS. Ganglia were centrifuged at 800 rpm for 6 min, and resuspended in SATO. Neurons were cultured overnight on CHO monolayers as described in Example 1 before being fixed and immunostained for GAP43 to visualize the neurites, as described in Example 1. As a positive control, some neurons from control animals were also cultured overnight in the presence of 1 mM dbcAMP. The length of the longest neurite per neuron, from 180-200 neurons, was measured and results are the average length+/−SEM. Results are expressed as a percentage of growth of the neurons isolated from control animals, treated with saline/DMSO injections and plated on control CHO cells, without dbcAMP or rolipram treatment.

A further data set relates to mice. The following applies: cited from earlier work.
Another data set has as its system hippocampal slices. The following applies: cited from earlier work.

With `COc1ccc(C2CNC(=O)C2)cc1OC1CCCC1` (stereo not shown) [rolipram], the “inhibition of axonal outgrowth by MAG” value in data set [1] (rolipram 0.25 uM-1.0 uM in media, 18 hours culture, P5 rat cerebellar neurons, FIG. 1) is on record as “partially blocks”. Also, the “efficiency of blocking the inhibition of axonal outgrowth by MAG compared to dibutyryl-cAMP” value in data set [1] (rolipram 0.5 uM, comparator dbcAMP 1 mM) turned out to be 80%. Moreover, in data set [1] (rolipram 0.1-1.0 uM), the “dose dependence of the effect on MAG inhibition of axonal outgrowth” value was “dose-dependent”. Moreover, the “blocking inhibition of axonal outgrowth by MAG after priming, compared with BDNF priming” value in data set [2] (priming 18 hours with rolipram 0.25 uM, FIG. 2) is given as “almost as effective as priming cerebellar neurons with BDNF”. The “length of neurites on monolayer of CHO cells expressing MAG, as % of length of neurons treated with BDNF” value in data set [2] (priming with rolipram 0.25 uM) was determined as 95%. For the same compound, in data set [3], the “inhibition of axonal growth by myelin after priming” value was “overcomes inhibition”. For the same compound, in data set [4] (P12 rats, 7.5 nmol/kg s.c. every 3 hours for 24 hours), the “subsequent inhibition of neuronal growth by MAG” value is reported as “effectively blocks”. For the same compound, in data set [4] (P12 rats, 25 nmol/kg s.c. every 3 hours for 24 hours), the “inhibition of neuronal growth by MAG” value is “essentially completely blocked”. Besides, the “most effective subcutaneous dose for relieving MAG inhibition” value in data set [4] (P12 rats, s.c. every 3 hours for 24 hours) was found to be 20 nmol/kg. Moreover, the “neurite length on control CHO cells” value in data set [4] (P12 rats, s.c. injections for 24 hours, control cells not expressing MAG) was “did not affect neurite length”. The “crossing of the blood brain barrier” value in data set [4] (inferred from effect on cerebellar (CNS) and DRG neurons after s.c. administration) is “crossed the blood brain barrier”. The memory improving effects entry in the data set on mice (3.0 umol/kg) is “did not have memory improving effects”. Further, in the data set on mice (0.1-3.0 umol/kg), the side effects entry is “No side effects”. Also, in the data set on mice (mice, 0.1 umol/kg s.c.), the “performance in a hippocampus-dependent memory task” value is “improved the performance”. Besides, the “basal cAMP levels” value with hippocampal slices (1.0-3.0 umol/kg) is listed as “Increased basal cAMP levels”. Moreover, in the data set with hippocampal slices (up to 0.3 umol/kg), the “basal cAMP levels in hippocampal slices” value is recorded as “did not raise basal cAMP levels”.
